Legend:
Type in all cases: in vivo
[1] = test system: ABUTH: Abutilon theophrasti; assay: Pre-emergence herbicidal effect; settings: dosage 320 g/ha
Outline: (§1)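 Compounds applied before emergence onto soil over sown seeds (WP or EC, 0.5% additive, 600 l/ha water); greenhouse culture about 3 weeks, then percent activity judged by eye against untreated plants.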

[2] = test system: ALOMY: Alopecurus myosuroides; assay: Pre-emergence herbicidal effect; settings: pre-emergence; dosage 320 g/ha
Outline: as §1

[3] = test system: AMARE: Amaranthus retroflexus; assay: Pre-emergence herbicidal effect; settings: pre-emergence; dosage 320 g/ha
Outline: as §1

AVEFA: Avena fatua = assay: Pre-emergence herbicidal effect; settings: dosage 320 g/ha
Outline: as §1

[4] = test system: ECHCG: Echinochloa crus-galli; assay: Pre-emergence herbicidal effect; settings: pre-emergence; dosage 320 g/ha
Outline: as §1

HORMU: Hordeum murinum = assay: Pre-emergence herbicidal effect; settings: pre-emergence; dosage 320 g/ha
Outline: as §1

LOLRI: Lolium rigidum = assay: Pre-emergence herbicidal effect; settings: dosage 320 g/ha
Outline: as §1

[5] = test system: MATIN: Matricaria inodora; assay: Pre-emergence herbicidal effect; settings: pre-emergence; dosage 320 g/ha
Outline: as §1

PHBPU: Ipomoea purpurea = assay: Pre-emergence herbicidal effect; settings: dosage 320 g/ha
Outline: as §1

[6] = test system: POLCO: Polygonum convolvulus; assay: Pre-emergence herbicidal effect; settings: dosage 320 g/ha
Outline: as §1

SETVI: Setaria viridis [7] = assay: Pre-emergence herbicidal effect; settings: pre-emergence; dosage 320 g/ha
Outline: as §1

STEME: Stellaria media [8] = assay: Pre-emergence herbicidal effect; settings: pre-emergence; dosage 320 g/ha
Outline: as §1

VERPE: Veronica persica [9] = assay: Pre-emergence herbicidal effect; settings: dosage 320 g/ha
Outline: as §1

VIOTR: Viola tricolor [10] = assay: Pre-emergence herbicidal effect; settings: dosage 320 g/ha
Outline: as §1

[11] = test system: ABUTH: Abutilon theophrasti; assay: Post-emergence herbicidal effect; settings: dosage 320 g/ha
Outline: (§2)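 Foliar post-emergence spray on one-leaf-stage plants raised in sandy loam in the greenhouse, using WP or EC formulations with 0.5% additive at a water rate of 600 l/ha; effect judged visually about 3 weeks on, 0% to 100% relative to untreated plants.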

[12] = test system: AMARE: Amaranthus retroflexus; assay: Post-emergence herbicidal effect; settings: dosage 320 g/ha
Outline: as §2

[13] = test system: ECHCG: Echinochloa crus-galli; assay: Post-emergence herbicidal effect; settings: dosage 320 g/ha
Outline: as §2

SETVI: Setaria viridis [14] = assay: Post-emergence herbicidal effect; settings: dosage 320 g/ha
Outline: as §2

STEME: Stellaria media [15] = assay: Post-emergence herbicidal effect; settings: dosage 320 g/ha
Outline: as §2

VERPE: Veronica persica [16] = assay: Post-emergence herbicidal effect; settings: dosage 320 g/ha
Outline: as §2

VIOTR: Viola tricolor [17] = assay: Post-emergence herbicidal effect; settings: dosage 320 g/ha
Outline: as §2

Row | Compound | Herbicidal action against ABUTH [1] [%] | Herbicidal action against ALOMY [2] [%] | Herbicidal action against AMARE [3] [%] | Herbicidal action against AVEFA (AVEFA: Avena fatua) [%] | Herbicidal action against ECHCG [4] [%] | Herbicidal action against HORMU (HORMU: Hordeum murinum) [%] | Herbicidal action against LOLRI (LOLRI: Lolium rigidum) [%] | Herbicidal action against MATIN [5] [%] | Herbicidal action against PHBPU (PHBPU: Ipomoea purpurea) [%] | Herbicidal action against POLCO [6] [%] | Herbicidal action against SETVI (SETVI: Setaria viridis [7]) [%] | Herbicidal action against STEME (STEME: Stellaria media [8]) [%] | Herbicidal action against VERPE (VERPE: Veronica persica [9]) [%] | Herbicidal action against VIOTR (VIOTR: Viola tricolor [10]) [%] | Herbicidal action against ABUTH [11] [%] | Herbicidal action against AMARE [12] [%] | Herbicidal action against ECHCG [13] [%] | Herbicidal action against SETVI (SETVI: Setaria viridis [14]) [%] | Herbicidal action against STEME (STEME: Stellaria media [15]) [%] | Herbicidal action against VERPE (VERPE: Veronica persica [16]) [%] | other results
1 | C=CC(C)(O)c1cnc(N[C@H]2c3cc(C)ccc3C[C@@H]2C)nc1 (stereo partly drawn) [Example 1.15, 2-(2-{[(1R,2S)-2,6-Dimethyl-2,3-dihydro-1H-inden-1-yl]amino}pyrimidin-5-yl)but-3-en-2-ol] | 100 | 100 | 100 | 100 | 100 | 100 | 100 | 100 | 100 | 100 | 100 | 100 | 100 | 100 | 90 | 90 | 100 | 80 | 100 | 90 | Herbicidal action against VIOTR (VIOTR: Viola tricolor [17]): 80%
2 | C#CC(C)(O)c1cnc(N[C@H]2c3cc(C)ccc3C[C@@H]2C)nc1 (stereo partly drawn) [Example 1.18] | 100 | 100 | 100 | 100 | 100 | 100 | 100 | 100 | 100 | 100 | 100 | 100 | 100 | 100 | 90 | 90 | 100 | 90 | 100 | 100 | Herbicidal action against VIOTR (VIOTR: Viola tricolor [17]): 90%
3 | CC#CC(C)(O)c1cnc(N[C@H]2c3cc(C)ccc3C[C@@H]2C)nc1 (stereo partly drawn) [Example 1.22] | 100 | 100 | 100 | 100 | 100 | 100 | 100 | 100 | 100 | 100 | 100 | 100 | 100 | 100 | 90 | 90 | 100 | 100 | 90 | 90 | Herbicidal action against VIOTR (VIOTR: Viola tricolor [17]): 90%
4 | COC(C)(C)c1cnc(N[C@H]2c3cc(C)ccc3C[C@@H]2C)nc1 [Example 1.24] | 100 | 100 | 100 | 100 | 100 | 100 | 100 | 100 | 90 | 100 | 100 | 100 | 100 | 100 | 90 | 90 | 100 | 90 | 100 | 90 | Herbicidal action against VIOTR (VIOTR: Viola tricolor [17]): 90%
5 | CCc1ccc2c(c1)[C@H](Nc1ncc(C(C)(C)O)cn1)CC2 [Example 1.31] | 100 | 100 | 100 | 100 | 100 | 100 | 100 | 100 | 100 | 100 | 100 | 100 | 100 | 100 | 90 | 100 | 100 | 90 | 100 | 90 | Herbicidal action against VIOTR (VIOTR: Viola tricolor [17]): 90%

— patent publication US11477982B2, “2-amino-5-oxyalkyl-pyrimidine derivatives and their use for controlling undesired plant growth” (Bayer CropScience Aktiengesellschaft, priority 2017, dated 2022)
